Laboratory results published in ChEMBL document CHEMBL5543061, “Recent advances of antitumor leading compound Erianin: Mechanisms of action and structural modification” (Eur J Med Chem, 2023).
Values belong to the compound of their own block, whether it stands above or below them.

Legend:
A549 [1] = test: Cytotoxicity against human A549 cells assessed as reduction in cell viability incubated for 48 hrs by Alamar Blue assay; format: functional, cell-based; conditions: A549, 48 h
HCT-116 [2] = test: Anticancer activity against human HCT-116 cells; format: functional, cell-based
HepG2 [3] = test: Antiproliferative activity against human HepG2 cells assessed as inhibition of cell growth incubated for 72 hrs by CCK-8 assay relative to control; format: functional; set-up: scale not given: the % may be the effect or the level left
HeLa [4] = test: Antiproliferative activity against human HeLa cells assessed as inhibition of cell growth incubated for 72 hrs by CCK-8 assay relative to control; format: functional; set-up: scale not given: the % may be the effect or the level left
HCT-116 [5] = test: Antiproliferative activity against human HCT-116 cells assessed as inhibition of cell growth incubated for 72 hrs by CCK-8 assay relative to control; format: functional; set-up: scale not given: the % may be the effect or the level left
[6] = Elimination half life in rat at 2 mg/kg, iv; format: ADME, organism-based; conditions: in vivo, read-out: beta t1/2 (converted)
[7] = Half life in Beagle dog at 30 mg/kg, iv measured for 8 to 12 hrs by LC-MS/MS analysis; format: ADME, organism-based, Canis lupus familiaris; conditions: in vivo, time 8-12 hrs
Ishikawa = test: Antiproliferative activity against human Ishikawa cells assessed as reduction in cell viability by MTS assay; format: functional, cell-based
143B [8] = test: Antiproliferative activity against human 143B cells assessed as inhibition of cell growth measured after 24 hrs by MTT assay; format: functional, cell-based
SNU-449 = test: Antiproliferative activity against human SNU-449 cells; format: functional, cell-based
[9] = Half life in rat at 25 mg/kg, iv; format: ADME, organism-based; conditions: in vivo
MCF7 [10] = test: Antiproliferative activity against human MCF7 cells assessed as reduction in cell viability incubated for 72 hrs by MTT assay; format: functional, cell-based; conditions: MCF7, 72 h
[11] = Half life in Beagle dog at 7.5 mg/kg, iv measured for 8 to 12 hrs by LC-MS/MS analysis; format: ADME, organism-based, Canis lupus familiaris; conditions: in vivo, time 8-12 hrs
HepG2 [12] = test: Anticancer activity against human HepG2 cells assessed as cell growth reduction incubated for 24 hrs by MTT assay; format: functional, cell-based; conditions: HepG2, 24 h
[13] = Antiproliferative activity against human MG-63.3 cells assessed as reduction in cell viability measured for 48 hrs by MTT assay; format: functional, cell-based; conditions: MG-63.3, 48 h
HepG2 [14] = test: Anticancer activity against human HepG2 cells assessed as reduction in cell viability; format: functional, cell-based
PC-3 = test: Antiproliferative activity against human PC-3 cells assessed as reduction of cell viability incubated for 24 to 72 hrs by CCK-8 assay; format: functional, cell-based
MDA-MB-231 = test: Antiproliferative activity against human MDA-MB-231 cells assessed as reduction in cell viability incubated for 24 hrs by MTT assay; format: functional, cell-based; conditions: MDA-MB-231, 24 h
HepG2 [15] = test: Antiproliferative activity against human HepG2 cells; format: functional, cell-based
HL-60 [16] = test: Antiproliferative activity against human HL-60 cells assessed as reduction in cell viability incubated for 72 hrs by MTT assay; format: functional, cell-based; conditions: HL-60, 72 h
T-24 = test: Antiproliferative activity against human T24 cells assessed as reduction in cell viability incubated for 48 hrs by MTT assay; format: functional, cell-based; conditions: T-24, 48 h
MIA PaCa-2 = test: Antiproliferative activity against human MIA PaCa-2 cells assessed as reduction of cell viability incubated for 72 hrs by CCK-8 assay; format: functional, cell-based; conditions: MIA PaCa-2, 72 h
[17] = Antiproliferative activity against human MG-63.3 cells assessed as reduction in cell viability measured for 72 hrs by MTT assay; format: functional, cell-based; conditions: MG-63.3, 72 h
HL-60 [18] = test: Cytotoxicity against human HL-60 cells assessed as reduction in cell viability incubated for 48 hrs by MTT assay; format: functional, cell-based; conditions: HL-60, 48 h
A-375 = test: Antiproliferative activity against human A-375 cells assessed as reduction in cell viability incubated for 72 hrs by MTT assay; format: functional, cell-based; conditions: A-375, 72 h
HepG2 [19] = test: Anticancer activity against human HepG2 cells assessed as cell growth reduction incubated for 48 hrs by MTT assay; format: functional, cell-based; conditions: HepG2, 48 h
LNCaP [20] = test: Cytotoxicity against human LNCaP cells assessed as reduction in cell growth incubated for 48 hrs by MTT assay; format: functional, cell-based
PLC-PRF-5 = test: Antiproliferative activity against human PLC-PRF-5 cells; format: functional, cell-based
HCC 2998 = test: Antiproliferative activity against human HCC 2998 cells assessed as reduction in cell viability incubated for 72 hrs by MTT assay; format: functional, cell-based; conditions: HCC 2998, 72 h
[21] = Half life in rat at 50 mg/kg, iv; format: ADME, organism-based; conditions: in vivo
[22] = Antiproliferative activity against human HEC-251 cells assessed as reduction in cell viability; format: functional, cell-based
SMMC-7721 = test: Antiproliferative activity against human SMMC-7721 cells assessed as reduction in cell viability incubated for 24 hrs by CCK-8 assay; format: functional, cell-based; conditions: SMMC-7721, 24 h
LLC-MK2 = test: Antiproliferative activity against Rhesus monkey LLC-MK2 cells assessed as reduction in cell viability incubated for 48 hrs by MTT assay; format: functional, cell-based; conditions: Macaca mulatta, LLC-MK2, 48 h
Huh-7 = test: Antiproliferative activity against human Huh-7 cells; format: functional, cell-based
HepG2 [23] = test: Antiproliferative activity against human HepG2 cells assessed as inhibition of cell growth relative to control; format: functional; set-up: scale not given: the % may be the effect or the level left
[24] = Oral bioavailability in rat at 10 mg/kg; format: ADME, organism-based; conditions: in vivo
A549 [25] = test: Antiproliferative activity against human A549 cells assessed as reduction in cell viability incubated for 72 hrs by MTT assay; format: functional, cell-based; conditions: A549, 72 h
Bel-7402 = test: Antiproliferative activity against human Bel-7402 cells incubated for 72 hrs by MTT assay; format: functional, cell-based; conditions: Bel-7402, 72 h
HeLa [26] = test: Antiproliferative activity against human HeLa cells assessed as reduction in cell viability incubated for 48 hrs by MTT assay; format: functional, cell-based
MDA-MB-468 = test: Antiproliferative activity against human MDA-MB-468 cells assessed as reduction in cell viability incubated for 72 hrs by MTT assay; format: functional, cell-based; conditions: MDA-MB-468, 72 h
[27] = Half life in rat at 100 mg/kg, iv; format: ADME, organism-based; conditions: in vivo
[28] = Half life in Beagle dog at 15 mg/kg, iv measured for 8 to 12 hrs by LC-MS/MS analysis; format: ADME, organism-based, Canis lupus familiaris; conditions: in vivo, time 8-12 hrs
143B [29] = test: Antiproliferative activity against human 143B cells assessed as inhibition of cell growth measured after 48 hrs by MTT assay; format: functional, cell-based
EJM = test: Antitumor activity against human EJM cells assessed as reduction in cell viability incubated for 24 hrs by CCK-8 assay; format: functional, cell-based
HLE = test: Antiproliferative activity against human HLE cells; format: functional, cell-based
A549 [30] = test: Antiproliferative activity against human A549 cells assessed as reduction in cell viability incubated for 48 hrs by MTT assay; format: functional, cell-based; conditions: A549, 48 h
LNCaP [31] = test: Cytotoxicity against human LNCaP cells assessed as reduction in cell growth incubated for 72 hrs by MTT assay; format: functional, cell-based
HuH-1 = test: Antiproliferative activity against human HuH-1 cells; format: functional, cell-based
HCT-116 [32] = test: Antiproliferative activity against human HCT-116 cells assessed as reduction in cell viability incubated for 72 hrs by MTT assay; format: functional, cell-based; conditions: HCT-116, 72 h
NCI-H1975 = test: Antiproliferative activity against human NCI-H1975 cells assessed as reduction in cell viability incubated for 48 hrs by MTT assay; format: functional, cell-based; conditions: NCI-H1975, 48 h
HeLa [33] = test: Antiproliferative activity against human HeLa cells assessed as reduction in cell viability by MTT assay; format: functional, cell-based
[34] = Antiproliferative activity against human MG-63.3 cells assessed as reduction in cell viability measured for 24 hrs by MTT assay; format: functional, cell-based; conditions: MG-63.3, 24 h
HepG2 [35] = test: Antiproliferative activity against human HepG2 cells assessed as reduction in cell growth; format: functional, cell-based
HepG2 [36] = test: Anticancer activity against human HepG2 cells assessed as reduction in cell viability measured for 24 hrs by MTT assay; format: functional, cell-based; conditions: HepG2, 24 h
[37] = Antiproliferative activity against human SNU-739 cells; format: functional, cell-based
[38] = Antiproliferative activity against human EFM-192A cells; format: functional, cell-based
LNCaP [39] = test: Cytotoxicity against human LNCaP cells assessed as reduction in cell growth incubated for 24 hrs by MTT assay; format: functional, cell-based
143B [40] = test: Antiproliferative activity against human 143B cells assessed as inhibition of cell growth measured after 72 hrs by MTT assay; format: functional, cell-based
SK-MEL3 = test: Antiproliferative activity against human SK-MEL3 cells harboring BRAF V600E mutant assessed as reduction in cell viability by cell-titer Glo assay; format: functional, cell-based
HeLa [41] = test: Cytotoxicity against human HeLa cells assessed as reduction in cell viability by MTT assay; format: functional, cell-based
MCF7 [42] = test: Cytotoxicity against human MCF7 cells assessed as reduction in cell viability incubated for 72 hrs by MTT assay; format: functional, cell-based; conditions: MCF7, 72 h

IC50 (HCT-116 [2]): 42000 nM
Structure (SMILES): Oc1ccc(CCc2cc(O)c(O)c(O)c2)cc1O
IC50 (A549 [1]): 42000 nM

Structure (SMILES): COc1ccc(/C=C\c2cc(OC)c(OC)c(OC)c2)cc1OP(=O)(O)O [FOSBRETABULIN]
Activity (HepG2 [3]): 88.6%
Activity (HeLa [4]): 84.7%
Activity (HCT-116 [5]): 86.1%

half-life [6]: 1.5 h
half-life [7]: 1.6 h
IC50 (SNU-449): 236 nM
half-life [9]: 3.66 h
IC50 (MCF7 [10]): 60 nM
half-life [11]: 1.41 h
IC50 (HepG2 [12]): 128 nM
IC50 (HepG2 [14]): 72.8 nM
IC50 (PC-3): 26 nM
IC50 (MDA-MB-231): 71 nM
IC50 (HepG2 [15]): 584 nM
IC50 (HL-60 [16]): 38 nM
IC50 (MIA PaCa-2): 50 nM
IC50 (A-375): 20.6 nM
IC50 (HepG2 [19]): 120 nM
IC50 (HCC 2998): 70 nM
half-life [21]: 3.75 h
IC50 (SMMC-7721): 81 nM
IC50 (Huh-7): 44.3 nM
bioavailability [24]: 8.7%
IC50 (A549 [25]): 70 nM
IC50 (Bel-7402): 21.5 nM
IC50 (HeLa [26]): 8300 nM
IC50 (MDA-MB-468): 40 nM
half-life [27]: 3.89 h
half-life [28]: 1.66 h
IC50 (A549 [30]): 0.6 nM
IC50 (HuH-1): 25.9 nM
IC50 (HCT-116 [32]): 60 nM
IC50 (NCI-H1975): 0.5 nM
IC50 (HeLa [33]): 220 nM
IC50 (HepG2 [35]): 175 nM
IC50 (HepG2 [36]): 43.7 nM
IC50 (SK-MEL3): 12 nM
Structure (SMILES): COc1ccc(CCc2cc(OC)c(OC)c(OC)c2)cc1O
IC50 (Ishikawa): 40.6 nM
IC50 (143B [8]): 58.2 nM
IC50 [13]: 44.3 nM
IC50 (T-24): 45.9 nM
IC50 [17]: 17.2 nM
IC50 (HL-60 [18]): 40 nM
IC50 (LNCaP [20]): 26.5 nM
IC50 (PLC-PRF-5): 55 nM
IC50 [22]: 41.8 nM
IC50 (LLC-MK2): 2.3 nM
Activity (HepG2 [23]): 82.81%
IC50 (143B [29]): 41 nM
IC50 (EJM): 65 nM
IC50 (HLE): 28.6 nM
IC50 (LNCaP [31]): 26.2 nM
IC50 [34]: 88.7 nM
IC50 [37]: 17.7 nM
IC50 [38]: 78.6 nM
IC50 (LNCaP [39]): 33.8 nM
IC50 (143B [40]): 26.8 nM

Structure (SMILES): CCOc1ccc(CCc2cc(OC)c(OC)c(OC)c2)cc1OP(=O)(O)O
IC50 (HeLa [41]): 570 nM

Structure (SMILES): COc1cc(CCc2ccc(OC(F)F)c(N)c2)cc(OC)c1OC
IC50 (MCF7 [42]): 130 nM
